Results from publication PMC4198483 (Cancer cell, 2014).
Changes are numbered by the printed parent chain.

How the values were obtained:
TIPE3 (TNFAIP8L3) [1] = molecular target: T1, TIPE3 (TNFAIP8L3) (Mus musculus, UniProt Q3TBL6); experiment: vesicle sedimentation assay; type: binding; details: 20 µM protein; 1000 µM vesicles of 10% lipid + 90% PC
T1 sequence (Q3TBL6 1-204): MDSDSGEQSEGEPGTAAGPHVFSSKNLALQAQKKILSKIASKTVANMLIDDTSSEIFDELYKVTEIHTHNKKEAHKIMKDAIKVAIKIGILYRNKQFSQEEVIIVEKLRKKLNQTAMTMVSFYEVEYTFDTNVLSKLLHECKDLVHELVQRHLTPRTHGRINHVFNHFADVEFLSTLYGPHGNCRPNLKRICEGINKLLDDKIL

TIPE3 (TNFAIP8L3) [2] = molecular target: T2, TIPE3 (TNFAIP8L3) (Mus musculus, UniProt Q3TBL6, K33Q/K34Q/K38Q/K42Q); experiment: vesicle sedimentation assay; type: binding; details: 20 µM protein; 1000 µM vesicles of 10% lipid + 90% PC
T2 sequence (Q3TBL6 1-204 K33Q/K34Q/K38Q/K42Q): T1 sequence (Q3TBL6 1-204) with K33Q, K34Q, K38Q, K42Q

% protein bound to vesicles (TIPE3 (TNFAIP8L3) [1]) [%]	% protein bound to vesicles (TIPE3 (TNFAIP8L3) [2])	Substance
> 60	–	PtdIns(3,4,5)P3
> 60	~ 30%	PtdIns(4,5)P2
